Experiments:
rat formalin pain model = assay: Rat formalin model of pain (inhibition of formalin-induced flinching); type: in vivo; conditions: for SNRI Dose Response ED50 (Confidence Interval): phase 2A, SNRI IP alone or plus 1 mg/kg morphine SC, 95% CI
rat SERT = target: T1, rat SERT (Rattus norvegicus, UniProt P31652); assay: Ex vivo SERT transporter occupancy ([3H]-citalopram association); type: in vivo; conditions: 1.25 h post dose, ± Standard Error; for receptor occupancy at 3 mg/kg: 3 mg/kg IP; for receptor occupancy at 10 mg/kg: 10 mg/kg IP
T1 construct: from tissue; host or cells: rat cortex or lumbar spinal cord homogenate from dosed animals
T1 sequence (P31652 whole entry): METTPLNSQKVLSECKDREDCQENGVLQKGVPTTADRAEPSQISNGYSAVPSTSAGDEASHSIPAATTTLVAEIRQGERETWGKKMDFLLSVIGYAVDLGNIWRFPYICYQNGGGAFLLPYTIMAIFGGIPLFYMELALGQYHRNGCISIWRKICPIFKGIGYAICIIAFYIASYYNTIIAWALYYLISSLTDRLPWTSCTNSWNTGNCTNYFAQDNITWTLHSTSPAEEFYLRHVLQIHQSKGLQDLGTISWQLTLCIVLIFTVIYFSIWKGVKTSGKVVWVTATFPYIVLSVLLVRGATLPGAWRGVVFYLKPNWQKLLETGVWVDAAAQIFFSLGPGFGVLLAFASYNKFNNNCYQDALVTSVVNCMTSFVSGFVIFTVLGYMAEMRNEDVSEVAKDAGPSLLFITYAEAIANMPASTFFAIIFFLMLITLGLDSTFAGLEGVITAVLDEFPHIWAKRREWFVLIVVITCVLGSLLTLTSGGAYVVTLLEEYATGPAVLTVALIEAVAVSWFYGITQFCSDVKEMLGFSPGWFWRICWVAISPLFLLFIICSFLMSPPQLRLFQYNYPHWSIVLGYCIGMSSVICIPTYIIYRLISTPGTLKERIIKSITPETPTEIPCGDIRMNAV
Experimental: (§1) To monitor SERT and NET transporter occupancy, an ex vivo occupancy assay was used in which the initial rate of association of a SERT- or NET-selective radioligand, respectively, to the tissue homogenates was monitored. The initial rate of association of radioligand is directly proportional to the level of free (unoccupied) transporter.
Rats were euthanized 1.25 hours post compound administration by decapitation. Following decapitation, the brain was removed and placed on to a clean metal block, on ice. A parasagittal cut was made through the entire brain, around 4 mm lateral to the midline. The lateral cortex pieces were discarded. A midsagittal cut was made through the entire length of the brain. The block of brain corresponding to each hemisphere was then placed on to the respective lateral cut surface, such that the midsagittal surface was uppermost. A single cut was made parallel to, and about 1 mm dorsal to, the corpus callosum to remove a cortex piece, which was frozen on dry ice prior to storage at −80° C. The spinal cord was harvested by hydraulic extrusion with PBS. An 18 gauge needle was inserted into the spinal column near the iliac crest and the buffer injected into the spinal column with the resultant extrusion of the spinal cord, intact. The lumbar spinal cord (approximately 1-1.5 cm in length) was rapidly dissected and frozen on dry ice prior to storage at −80° C.
The frozen tissue pieces were weighed and kept on dry ice prior to homogenization. […]
(§2) Total and non-specific binding was determined at a single concentration of radioligand (in parentheses): [^3H]-citalopram (3 nM) and [^3H]-nisoxetine (5 nM) at SERT and NET, respectively. […] Filter plates were washed six times with wash buffer (ice-cold 50 mM Tris-HCl, 0.9% NaCl, at 4° C.) to remove unbound radioactivity. Plates were dried, 35-45 μL Microscint-20 liquid scintillation fluid (Packard BioScience Co., Meriden, Conn.) was added to each well, and plates were counted in a Packard Topcount liquid scintillation counter (Packard BioScience Co., Meriden, Conn.).
Specific binding was calculated using total (in the absence of test compound) and non-specific (determined as described above) binding from the same plate as follows: specific binding=value−non-specific binding. Data then were analyzed by linear regression analysis with the GraphPad Prism Software package (GraphPad Software, Inc., San Diego, Calif.). The initial rates of association of [^3H]-citalopram or [^3H]-nisoxetine, equal to the slope of the straight line, were determined by fitting data points, specific binding (cpm) versus time (min). The average of the initial rates of [^3H]-citalopram or [^3H]-nisoxetine association from vehicle-dosed animals was calculated. […]

rat NET = target: T2, rat NET (Rattus norvegicus, UniProt Q63380); assay: Ex vivo NET transporter occupancy ([3H]-nisoxetine association); type: in vivo; conditions: lumbar spinal cord, 1.25 h post dose, ± Standard Error
T2 construct: from tissue; host or cells: rat cortex or lumbar spinal cord homogenate from dosed animals
T2 sequence (Q63380 1-617): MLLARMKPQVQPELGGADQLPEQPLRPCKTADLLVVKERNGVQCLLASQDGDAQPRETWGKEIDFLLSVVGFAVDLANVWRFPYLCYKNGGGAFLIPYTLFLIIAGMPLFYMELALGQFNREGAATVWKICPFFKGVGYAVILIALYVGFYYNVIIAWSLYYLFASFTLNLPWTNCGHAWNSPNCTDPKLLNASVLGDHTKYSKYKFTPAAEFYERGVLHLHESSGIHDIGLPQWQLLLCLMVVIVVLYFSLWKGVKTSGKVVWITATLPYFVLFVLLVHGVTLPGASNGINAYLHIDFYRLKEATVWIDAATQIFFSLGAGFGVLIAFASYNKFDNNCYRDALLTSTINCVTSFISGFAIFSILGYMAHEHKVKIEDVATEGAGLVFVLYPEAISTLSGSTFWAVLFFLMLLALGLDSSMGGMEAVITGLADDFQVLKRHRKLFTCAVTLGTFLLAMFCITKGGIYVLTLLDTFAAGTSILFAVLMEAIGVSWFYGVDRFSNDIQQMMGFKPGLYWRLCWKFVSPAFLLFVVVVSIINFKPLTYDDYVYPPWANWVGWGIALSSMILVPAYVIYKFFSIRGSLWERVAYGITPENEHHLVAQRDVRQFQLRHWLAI
Text: as §1
The spinal cord was harvested by hydraulic extrusion with PBS. An 18 gauge needle was inserted into the spinal column near the iliac crest and the buffer injected into the spinal column with the resultant extrusion of the spinal cord, intact. […]
as §2
Specific binding was calculated using total (in the absence of test compound) and non-specific (determined as described above) binding from the same plate as follows: specific binding=value−non-specific binding. […]

NET [1] = target: NET (Rattus norvegicus, UniProt Q63380); assay: 3H-NE uptake assay in rat brain synaptosomal preparations; conditions: Rat brain synaptosomes, 3H-NE uptake
NET (Rattus norvegicus, UniProt Q63380), sequence (Q63380 1-617): as above
Text: (§3) Neurotransmitter uptake assays were used to measure inhibition of ^3H-serotonin (^3H-5-HT) and ^3H-norepinephrine (^3H-NE) uptake into cells expressing the respective human recombinant transporter (hSERT or hNET) and into rat brain synaptosomal preparations in order to determine the pIC50 values of test compounds at the human and rat monoamine transporters, respectively.
(§4) Rats were euthanized by decapitation. Rat freshly dissected cortical tissue pieces were suspended in ice-cold Sucrose Buffer at a ratio of 100 mg wet weight of tissue per 1 mL of buffer. The tissues were homogenized using a pre-chilled glass dounce homogenizer for 20 strokes. The homogenate was centrifuged at 1,000×g (10 min at 4° C.). The pellet was discarded and the resulting supernatant was centrifuged at 10,000×g (20 min at 4° C.) to obtain the crude synaptosomal pellet. Synaptosomes were resuspended in Sucrose Buffer and the protein concentration was determined by the method of Bradford (Bradford (1976) Analytical Biochemistry 72:24854) and used immediately following preparation.
(§5) Neurotransmitter uptake assays were performed in a 96-well assay plate in a total volume of 400 μg containing 1.5×10^4 and 2.5×10^4 cells, for SERT and NET, respectively or 10 μg cortical synaptosomal protein in assay buffer (Krebs-Ringer bicarbonate buffer containing HEPES (10 mM), CaCl2 (2.2 mM), ascorbic acid (200 μM) and pargyline (200 μM), pH 7.4). […]
(§6) Following a 10 minute incubation for cells (6 minute incubation for rat synaptosomes) at 37° C. with radioligand, the reactions were terminated by rapid filtration over a 96-well UniFilter GF/B plate, pretreated with 1% BSA, and washed 6 times with 650 μl wash buffer (ice cold PBS). Plates were dried, 35-45 μl of MicroScint™-20 (Perkin Elmer) added and incorporated radioactivity quantitated via liquid scintillation counting. Inhibition curves were analyzed using the GraphPad Prism Software package (GraphPad Software, Inc., San Diego, Calif.).

NET [2] = assay: as above
Text: as §3, §4, §5, §6

SERT = SERT (Rattus norvegicus, UniProt P31652); assay: 3H-5-HT uptake assay in rat brain synaptosomal preparations
SERT, sequence (P31652 whole entry): as the sequence (P31652 whole entry) above
Text: as §3
Rats were euthanized by decapitation. Rat freshly dissected cortical tissue pieces were suspended in ice-cold Sucrose Buffer at a ratio of 100 mg wet weight of tissue per 1 mL of buffer. The tissues were homogenized using a pre-chilled glass dounce homogenizer for 20 strokes. The homogenate was centrifuged at 1,000×g (10 min at 4° C.). […] Synaptosomes were resuspended in Sucrose Buffer and the protein concentration was determined by the method of Bradford (Bradford (1976) Analytical Biochemistry 72:24854) and used immediately following preparation. […]
Following a 10 minute incubation for cells (6 minute incubation for rat synaptosomes) at 37° C. with radioligand, the reactions were terminated by rapid filtration over a 96-well UniFilter GF/B plate, pretreated with 1% BSA, and washed 6 times with 650 μl wash buffer (ice cold PBS). Plates were dried, 35-45 μl of MicroScint™-20 (Perkin Elmer) added and incorporated radioactivity quantitated via liquid scintillation counting. […]

hNET = hNET (Homo sapiens, UniProt P23975); assay: 3H-NE neurotransmitter uptake assay in HEK-293 cells expressing hNET
hNET, sequence (P23975 whole entry): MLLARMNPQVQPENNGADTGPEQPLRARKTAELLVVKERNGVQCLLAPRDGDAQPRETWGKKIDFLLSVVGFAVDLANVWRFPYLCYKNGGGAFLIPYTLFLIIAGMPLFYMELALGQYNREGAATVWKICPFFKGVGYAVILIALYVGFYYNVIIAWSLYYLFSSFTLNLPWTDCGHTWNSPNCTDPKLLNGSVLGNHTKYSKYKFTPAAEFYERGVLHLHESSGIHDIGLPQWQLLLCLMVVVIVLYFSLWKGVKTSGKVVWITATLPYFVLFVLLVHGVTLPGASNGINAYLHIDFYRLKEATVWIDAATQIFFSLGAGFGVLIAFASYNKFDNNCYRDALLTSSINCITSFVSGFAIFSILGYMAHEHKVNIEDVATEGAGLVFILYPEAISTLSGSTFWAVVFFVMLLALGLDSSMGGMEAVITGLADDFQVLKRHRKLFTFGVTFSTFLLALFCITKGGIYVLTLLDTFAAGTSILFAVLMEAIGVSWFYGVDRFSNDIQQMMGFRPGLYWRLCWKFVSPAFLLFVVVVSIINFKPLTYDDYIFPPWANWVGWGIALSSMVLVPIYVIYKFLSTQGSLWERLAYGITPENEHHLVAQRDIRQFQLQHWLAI
Experimental: as §3
HEK-293 derived cell lines stably-transfected with hSERT or, hNET, respectively, were grown in Dulbecco's modified Eagles Medium (DMEM) supplemented with 10% dialyzed FBS (for hSERT) or FBS (for hNET), 100 μg/ml penicillin, 100 μg/ml streptomycin, 2 mM L-glutamine and 250 μg/ml of the aminoglycoside antibiotic G418 in a 5% CO2 humidified incubator at 37° C. When cultures reached 50-80% confluence, the cells were washed thoroughly in PBS (without Ca^2+ and Mg^2+) and lifted with 5 mM EDTA in PBS. Cells were harvested by centrifugation at 1100 rpm for 5 minutes, the supernatant was discarded, and the cell pellet resuspended, by gentle trituration, in room temperature Krebs-Ringer bicarbonate buffer containing HEPES (10 mM), CaCl2 (2.2 mM), ascorbic acid (200 μM) and pargyline (200 μM), pH 7.4. The final concentration of cells in the cell suspension was 7.5×10^4 cells/ml for hSERT and 12.5×10^4 cells/ml for hNET. […]
as §6

[3] = Pharmacokinetic studies: plasma concentrations alone or in combination; conditions: rat; for Plasma concentrations of SNRI alone versus in combination with morphine: compound 1 3 mg/kg, duloxetine 10 mg/kg or atomoxetine 10 mg/kg IP, morphine 3 mg/kg SC or vehicle SC
hSERT = hSERT (Homo sapiens, UniProt P31645); assay: 3H-5-HT neurotransmitter uptake assay in HEK-293 cells expressing hSERT
hSERT, sequence (P31645 whole entry): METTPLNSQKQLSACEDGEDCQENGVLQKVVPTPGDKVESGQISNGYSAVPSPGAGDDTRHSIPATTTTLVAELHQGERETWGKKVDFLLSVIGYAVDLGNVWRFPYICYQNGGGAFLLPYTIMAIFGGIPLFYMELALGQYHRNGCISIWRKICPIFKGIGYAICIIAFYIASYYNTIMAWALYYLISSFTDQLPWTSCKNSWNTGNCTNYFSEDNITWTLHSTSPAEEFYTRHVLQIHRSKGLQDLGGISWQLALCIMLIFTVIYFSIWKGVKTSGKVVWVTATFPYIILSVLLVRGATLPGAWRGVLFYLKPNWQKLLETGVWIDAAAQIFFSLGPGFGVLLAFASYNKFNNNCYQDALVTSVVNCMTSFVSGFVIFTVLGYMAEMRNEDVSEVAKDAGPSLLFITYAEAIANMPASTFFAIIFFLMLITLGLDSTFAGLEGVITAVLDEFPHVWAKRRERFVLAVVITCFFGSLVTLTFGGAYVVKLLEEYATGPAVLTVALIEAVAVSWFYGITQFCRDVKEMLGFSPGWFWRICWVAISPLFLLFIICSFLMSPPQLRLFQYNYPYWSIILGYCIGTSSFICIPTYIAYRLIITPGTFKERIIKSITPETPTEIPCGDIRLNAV
Experimental: as §3
HEK-293 derived cell lines stably-transfected with hSERT or, hNET, respectively, were grown in Dulbecco's modified Eagles Medium (DMEM) supplemented with 10% dialyzed FBS (for hSERT) or FBS (for hNET), 100 μg/ml penicillin, 100 μg/ml streptomycin, 2 mM L-glutamine and 250 μg/ml of the aminoglycoside antibiotic G418 in a 5% CO2 humidified incubator at 37° C. […]
as §6

Fc1cc(F)c(OCc2ccccc2C2CCNCC2)c(F)c1 [Compound 1, 4-[2-(2,4,6-trifluoro-phenoxymethyl)-phenyl]-piperidine]
inhibition at 10 mg/kg (rat formalin pain model; Rattus norvegicus, single administration of 10 mg/kg compound 1 IP, mean±SEM, read-out: inhibition of flinching behavior): 20 ± 7% | pain behavior during phase 1 (rat formalin pain model; first 10 minutes post formalin injection (acute pain processing)): Decreases in pain behavior were also observed | SNRI Dose Response ED50 (Confidence Interval) (rat formalin pain model; rat formalin model): 20.0 (14.0-28.4) mg/kg | interaction with morphine (shift of morphine dose response curve) (rat formalin pain model; rat formalin model, 3 mg/kg IP compound 1 plus morphine SC, 3 mg/kg): failed to significantly shift the morphine dose response curve | interaction with oxycodone (ED50 shift, isobolographic analysis) (rat formalin pain model; rat formalin model, 10 mg/kg IP compound 1 plus oxycodone SC): synergistic interaction | interaction with morphine (ED50 shift, isobolographic analysis) (rat formalin pain model; rat formalin model, compound 1 or atomoxetine 10 mg/kg IP, duloxetine 3, 5 or 10 mg/kg IP, morphine SC): synergistic interaction | receptor occupancy at 3 mg/kg (rat SERT; lumbar spinal cord): 23 ± 14% | receptor occupancy at 10 mg/kg (rat SERT; lumbar spinal cord): 46 ± 20% | receptor occupancy at 3 mg/kg (rat NET; 3 mg/kg IP): 77 ± 15% | receptor occupancy at 10 mg/kg (rat NET; 10 mg/kg IP): 81 ± 6% | NET pIC50 (NET [1]): 8.9 | NET selectivity (NET [2]; Rat brain synaptosomes, 10**(NET pIC50 − SERT pIC50)): 10 | selectivity for NET (ratio of SERT to NET IC50 values) (NET [2]; rat brain synaptosomal preparations): about 10 fold | IC50 (SERT): 12.6 nM | IC50 (hNET): 2.51 nM | NET selectivity (hNET): 4 | selectivity for NET (ratio of SERT to NET IC50 values) (hNET; human recombinant cell-based assay): about 4 fold | Plasma concentrations of SNRI alone versus in combination with morphine [3]: equivalent | IC50 (hSERT): 10 nM

CNCC[C@H](Oc1cccc2ccccc12)c1cccs1 [Duloxetine, duloxetine, reference compound]
morphine sparing effect (rat formalin pain model; duloxetine 5 mg/kg IP co-administered with ondansetron 3 mg/kg IP, with morphine 1 mg/kg SC): a morphine sparing effect was observed | inhibition of flinching behavior (in words) (rat formalin pain model; single administration of 10 mg/kg duloxetine): significant inhibition of flinching behavior

CN1CC[C@]23c4c5ccc(O)c4O[C@H]2[C@@H](O)C=C[C@H]3[C@H]1C5 [Morphine, morphine, reference compound]
inhibition at 1 mg/kg (rat formalin pain model; Rattus norvegicus, sc, read-out: inhibition of flinching behavior): 13 ± 11%

CNCC[C@@H](Oc1ccccc1C)c1ccccc1 [Atomoxetine, atomoxetine, reference compound]
SNRI Dose Response ED50 (Confidence Interval) (rat formalin pain model; rat formalin model): 24.4 (14.5-41.1) (n = 6-12) mg/kg | receptor occupancy at 3 mg/kg (rat SERT; cortex): 35 ± 9% | receptor occupancy at 10 mg/kg (rat SERT; cortex): 64 ± 5% | Plasma concentrations of SNRI alone versus in combination with morphine [3]: equivalent

COc1ccc2c3c1O[C@H]1C(=O)CC[C@@]4(O)[C@@H](C2)N(C)CC[C@]314 [Oxycodone, oxycodone]
Plasma concentrations alone versus combination of compound 1 and oxycodone ([3]; compound 1 10 mg/kg IP, oxycodone 3 mg/kg SC): equivalent
